The values below are quoted from earlier work in patent US11759504B2, “PTH compounds with low peak-to-trough ratios” (Ascendis Pharma Bone Diseases A/S, priority 2016, dated 2023).

Like-named read-outs stand apart in the source and are kept apart here.

Assay in series [1]: not given
The source holds these as a separate data set.

As for `CC[C@H](C)[C@H](NC(=O)[C@H](CCC(=O)O)NC(=O)[C@H](CO)NC(=O)[C@@H](NC(=O)[C@@H](N)CO)C(C)C)C(=O)N[C@@H](CCC(N)=O)C(=O)N[C@@H](CC(C)C)C(=O)N[C@@H](CCSC)C(=O)N[C@@H](Cc1cnc[nH]1)C(=O)N[C@@H](CC(N)=O)C(=O)N[C@@H](CC(C)C)C(=O)NCC(=O)N[C@@H](CCCCN)C(=O)N[C@@H](Cc1cnc[nH]1)C(=O)N[C@@H](CC(C)C)C(=O)N[C@@H](CC(N)=O)C(=O)N[C@@H](CO)C(=O)N[C@@H](CCSC)C(=O)N[C@@H](CCC(=O)O)C(=O)N[C@@H](CCCN=C(N)N)C(=O)N[C@H](C(=O)N[C@@H](CCC(=O)O)C(=O)N[C@@H](Cc1c[nH]c2ccccc12)C(=O)N[C@@H](CC(C)C)C(=O)N[C@@H](CCCN=C(N)N)C(=O)N[C@@H](CCCCN)C(=O)N[C@@H](CCCCN)C(=O)N[C@@H](CC(C)C)C(=O)N[C@@H](CCC(N)=O)C(=O)N[C@@H](CC(=O)O)C(=O)N[C@H](C(=O)N[C@@H](Cc1cnc[nH]1)C(=O)N[C@@H](CC(N)=O)C(=O)N[C@@H](Cc1ccccc1)C(=O)O)C(C)C)C(C)C` [Forteo], the osteosarcoma rate entry (rats, daily injections) is listed as “dose dependent increase in osteosarcoma rate”.

For “Natpara: PTH(1-84), approved 2015 for once-daily subcutaneous injection as adjunct to vitamin D and calcium in hypoparathyroidism”, the osteosarcoma rate entry (rat, in vivo) is listed as “dose dependent increase in osteosarcoma rate”. Besides, the “patients who developed hypercalcemia at one or more measurements during a 24-hour period” value in series [1] (human, in vivo) is 71%. In addition, the urinary calcium excretion entry in series [1] (over the 24-hour period after injection) is recorded as “did not change”. Besides, the “treated participants who achieved normal blood calcium levels on reduced doses of calcium supplements and active forms of vitamin D” value in series [1] (pivotal trial, once-daily sc) was 42%.
